From patent publication US6596734B1, “Tetrahydroisoquinoline compounds for use as β3-adrenoreceptor agonists” (Molecular Design International, Inc., priority 2001, dated 2003) come the findings set out here.

SMILES strings stand for the structures. Counter-ions that a name gives are not always drawn.

One series deals with T1, human β2-adrenoreceptor (Homo sapiens, UniProt P07550).
T1 construct: expressed in transfected cells; host or cells: CHO cells
The experiment in a line: cAMP radioimmunoassay in CHO cells expressing human β2-adrenoreceptor. In kind it is cell-based. The conditions noted are these: maximal response relative to standard reference agonist (isoproterenol = 100%), na = not active, read-out: h-β2 cAMP Max %. As to the method: (§1) Chinese Hamster Ovary (CHO) cells expressing either human β1-, β2-, or β3-adrenoreceptor subtypes were used. Varying concentrations of each compound were added to the incubated cells and the cyclic AMP (cAMP) generated within the cells was extracted, and determined using a radioimmunoassay. Effective concentration-50 (EC-50) values were measured as the concentration (in nanomolar) of each drug that gave 50% of its maximum cAMP response. The maximal response (Max %) of each tested drug is expressed as a ratio of the drug response to that of a standard reference agonist (e.g., isoproterenol (Max %=100%)). If a compound has no activity for increasing cAMP at the highest concentration used, it is designated as “not active” or “na” in Table I below, which summarizes the testing results. See Konkar et al., Journal of Pharmacology and Experimental Therapeutics 291:875-883 (1999).

The target in another series is T2, human β1-adrenoreceptor (Homo sapiens, UniProt P08588).
T2 construct: expressed in transfected cells; host or cells: CHO cells
The experiment in a line: cAMP radioimmunoassay in CHO cells expressing human β1-adrenoreceptor. It is filed as cell-based. The conditions noted are these: maximal response relative to standard reference agonist (isoproterenol = 100%), na = not active, read-out: h-β1 cAMP Max %. As to the method:
as §1

A further series addresses T3, human β3-adrenoreceptor (Homo sapiens, UniProt P13945).
T3 construct: expressed in transfected cells; host or cells: CHO cells
Put plainly: cAMP radioimmunoassay in CHO cells expressing human β3-adrenoreceptor. In kind it is cell-based. The conditions noted are these: for Emax: maximal response relative to standard reference agonist (isoproterenol = 100%), na = not active, read-out: h-β3 cAMP Max %; for EC50: concentration giving 50% of the drug's maximum cAMP response, na = not active at highest concentration used, read-out: h-β3 cAMP EC50. The protocol: as §1

T2 sequence (P08588 whole entry): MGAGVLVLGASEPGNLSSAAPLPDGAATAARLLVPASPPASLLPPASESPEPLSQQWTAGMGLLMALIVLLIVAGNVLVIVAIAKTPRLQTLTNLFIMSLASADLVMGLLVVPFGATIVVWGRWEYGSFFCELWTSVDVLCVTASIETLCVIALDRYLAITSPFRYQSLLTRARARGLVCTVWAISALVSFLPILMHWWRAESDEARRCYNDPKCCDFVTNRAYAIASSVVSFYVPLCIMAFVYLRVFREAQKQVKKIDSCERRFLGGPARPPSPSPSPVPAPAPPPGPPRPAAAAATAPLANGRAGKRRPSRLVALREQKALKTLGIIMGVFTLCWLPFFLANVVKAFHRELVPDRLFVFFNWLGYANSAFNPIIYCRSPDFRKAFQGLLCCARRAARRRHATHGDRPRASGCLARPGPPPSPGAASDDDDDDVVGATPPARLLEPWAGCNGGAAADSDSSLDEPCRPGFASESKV
T1 sequence (P07550 whole entry): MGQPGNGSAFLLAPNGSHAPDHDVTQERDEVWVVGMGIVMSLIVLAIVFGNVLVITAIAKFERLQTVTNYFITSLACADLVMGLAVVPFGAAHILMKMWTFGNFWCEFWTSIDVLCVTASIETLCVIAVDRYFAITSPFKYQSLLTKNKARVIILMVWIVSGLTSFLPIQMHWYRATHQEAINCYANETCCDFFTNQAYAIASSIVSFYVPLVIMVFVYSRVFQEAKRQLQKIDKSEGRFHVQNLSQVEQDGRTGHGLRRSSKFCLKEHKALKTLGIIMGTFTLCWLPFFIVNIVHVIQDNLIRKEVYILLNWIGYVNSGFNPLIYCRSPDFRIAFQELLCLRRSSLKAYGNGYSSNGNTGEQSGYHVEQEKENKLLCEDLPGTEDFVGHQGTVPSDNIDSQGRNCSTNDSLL
T3 sequence (P13945 whole entry): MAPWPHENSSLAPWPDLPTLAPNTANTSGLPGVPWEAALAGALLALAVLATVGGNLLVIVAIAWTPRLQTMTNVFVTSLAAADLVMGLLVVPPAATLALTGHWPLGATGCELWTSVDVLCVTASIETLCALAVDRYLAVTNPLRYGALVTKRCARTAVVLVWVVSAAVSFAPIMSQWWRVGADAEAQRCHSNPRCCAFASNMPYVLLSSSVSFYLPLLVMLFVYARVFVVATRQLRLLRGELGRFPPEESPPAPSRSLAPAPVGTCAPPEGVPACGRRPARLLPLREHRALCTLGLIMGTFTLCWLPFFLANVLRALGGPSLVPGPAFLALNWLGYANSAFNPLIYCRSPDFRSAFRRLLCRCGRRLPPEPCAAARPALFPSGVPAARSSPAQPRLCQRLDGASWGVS

In the case of `CCOC(=O)Nc1cc2c(cc1NS(C)(=O)=O)CCNC2Cc1cc(Br)c(OC)c(Br)c1` (centres unmarked), the values for the Emax at human β2-adrenoreceptor, at human β1-adrenoreceptor and on human β3-adrenoreceptor were 17.2%, 11% and 8.7%, respectively.
For the molecule `COc1c(Br)cc(CC2NCCc3cc(O)c(NS(=O)(=O)c4ccc(C(F)(F)F)cc4)cc32)cc1Br` (centres unmarked), the Emax at human β2-adrenoreceptor came to 16.6%; at human β1-adrenoreceptor, 13%; on human β3-adrenoreceptor, 83.3%. Besides, the concentration for a half-maximal effect (EC50) on human β3-adrenoreceptor came to 29.2 nM.
For `CS(=O)(=O)Nc1cc2c(cc1O)CCNC2Cc1ccc(F)c(F)c1` (centres unmarked), at human β3-adrenoreceptor, the EC50 came to 24.4 nM and the Emax stood at 78.3%.
Turning to `COc1c(Br)cc(CC2NCCc3cc(O)c(NS(=O)(=O)c4ccc(C)cc4)cc32)cc1Br` (centres unmarked), the Emax is 8% at human β2-adrenoreceptor, 18.1% at human β1-adrenoreceptor and 97.6% on human β3-adrenoreceptor. The concentration for a half-maximal effect (EC50) on human β3-adrenoreceptor is 8.46 nM.
Take `COc1ccc(S(=O)(=O)Nc2cc3c(cc2O)CCNC3Cc2cc(Br)c(OC)c(Br)c2)cc1` (centres unmarked): at human β3-adrenoreceptor, the EC50 came out at 8.09 nM and the Emax came to 88.3%.
For `COc1c(Br)cc(CC2NCCc3cc(O)c(NS(=O)(=O)c4ccccc4)cc32)cc1Br` (centres unmarked), the Emax was found to be 21.4% on human β2-adrenoreceptor, 13.1% at human β1-adrenoreceptor and 88.2% at human β3-adrenoreceptor. For the same molecule, the EC50 on human β3-adrenoreceptor amounted to 35.3 nM.
As for `COc1c(Br)cc(CC2c3cc(NS(C)(=O)=O)c(O)cc3CCN2C)cc1Br` (centres unmarked), the results for the Emax at human β2-adrenoreceptor, on human β1-adrenoreceptor and at human β3-adrenoreceptor were 24.1%, 16.2% and 39.3%, respectively.
For the molecule `COc1c(I)cc(CC2NCCc3cc(O)c(NS(C)(=O)=O)cc32)cc1I` (centres unmarked), the Emax on human β2-adrenoreceptor came to 5%; at human β1-adrenoreceptor it was 5%; on human β3-adrenoreceptor, 98%. For the same molecule, the 50% effective concentration (EC50) at human β3-adrenoreceptor worked out at 3 nM.
`COc1ccc(CC2NCCc3cc(O)c(NS(C)(=O)=O)cc32)cc1OC` (centres unmarked): the Emax on human β2-adrenoreceptor was 15.4%; at human β1-adrenoreceptor it was 10.2%; on human β3-adrenoreceptor it was 76.9%. Also, the EC50 on human β3-adrenoreceptor was 118 nM.
For the molecule `CS(=O)(=O)Nc1cc2c(cc1O)CCNC2Cc1cc(F)cc(F)c1` (centres unmarked), on human β3-adrenoreceptor, the 50% effective concentration (EC50) was found to be 38.8 nM and the Emax worked out at 66.6%.
For `COc1ccc(S(=O)(=O)Nc2cc3c(cc2O)CCNC3Cc2cc(Br)c(OC)c(Br)c2)cc1` (centres unmarked) (as salt: hydrochloride) [Example 4, N-[1-(3,5-dibromo-4-methoxy-benzyl)-6-hydroxy-1,2,3,4-tetrahydro-isoquinolin-7-yl]-4-methoxy-benzenesulfonamide hydrochloride], the melting point is 226 to 228 °C (dec.).
With `COc1c(I)cc(CC2NCCc3cc(O)c(NS(=O)(=O)c4ccc(C)cc4)cc32)cc1I` (centres unmarked), the Emax on human β2-adrenoreceptor stood at 8%; on human β1-adrenoreceptor, 5%; on human β3-adrenoreceptor it was 91%. The EC50 at human β3-adrenoreceptor came out at 2.9 nM.
For `COc1c(Br)cc(CC2NCCc3cc(O)c(NS(=O)(=O)c4ccc(F)cc4)cc32)cc1Br` (centres unmarked), the Emax at human β2-adrenoreceptor is 13.5%; on human β1-adrenoreceptor it was 8.6%; on human β3-adrenoreceptor, 90.4%. For the same molecule, at human β3-adrenoreceptor, the half-maximal effective concentration (EC50) was determined as 5.22 nM.
In the case of `COc1c(Br)cc(CC2NCCc3cc(O)c(N(S(=O)(=O)c4ccc(F)cc4)S(=O)(=O)c4ccc(F)cc4)cc32)cc1Br` (centres unmarked), the Emax came out at 5.8% on human β2-adrenoreceptor, 12.1% at human β1-adrenoreceptor and 8.7% at human β3-adrenoreceptor.
Take `COc1c(Br)cc(CC2NCCc3cc(O)c(NS(=O)(=O)/C=C/c4ccccc4)cc32)cc1Br` (centres unmarked): at human β3-adrenoreceptor, the concentration giving a half-maximal response (EC50) stood at 23.1 nM and the Emax worked out at 96.6%.
For `COc1c(Br)cc(CC2NCCc3cc(O)c(NS(=O)(=O)Cc4ccccc4)cc32)cc1Br` (centres unmarked), on human β3-adrenoreceptor, the concentration for a half-maximal effect (EC50) is 20.9 nM and the Emax was determined as 92.2%.
The matching figures for `COc1c(Br)cc(CC2NCCc3cc(O)c(NS(=O)(=O)c4ccc(OC(F)(F)F)cc4)cc32)cc1Br` (centres unmarked): 80.3 nM and 65.7%.
Take `CS(=O)(=O)Nc1cc2c(cc1O)CCNC2Cc1ccc(Cl)c(Cl)c1` (centres unmarked): at human β3-adrenoreceptor, the EC50 turned out to be 9.91 nM and the Emax is 92%.
`CCS(=O)(=O)Nc1cc2c(cc1O)CCNC2Cc1cc(Br)c(OC)c(Br)c1` (centres unmarked): the Emax on human β1-adrenoreceptor came out at 8.4%. In addition, on human β3-adrenoreceptor, the concentration giving a half-maximal response (EC50) was 1.51 nM and the Emax was 102%.
Take `COc1ccc(CC2NCCc3cc(O)c(NS(C)(=O)=O)cc32)cc1` (centres unmarked): the Emax at human β3-adrenoreceptor is 24%.
Regarding `CS(=O)(=O)Nc1cc2c(cc1N)CCNC2Cc1ccc(Cl)c(Cl)c1` (centres unmarked), the values for the Emax at human β2-adrenoreceptor, on human β1-adrenoreceptor and at human β3-adrenoreceptor were 10.8%, 12.6% and 2.24%, respectively.
